Experimental data as given in US12617767B2, “Crystalline forms of somatostatin modulators” (Crinetics Pharmaceuticals, Inc., priority 2019, dated 2026).
Converted amounts (≈) assume the structure as drawn. Like-named read-outs stand apart in the source and are kept apart here.

Assays:
Assay type in all cases: physicochemical
[1] = Slurries of amorphous material (dissolution at room temperature); conditions: room temperature (20-23° C.)
Protocol: About 22 mg of amorphous material was dispensed into vials and 0.5 mL (ca. 23 volumes) of the chosen solvent was added, and the mixture was stirred at room temperature (20-23° C.). A solution was formed in water and water saturated MeOAc. Additional solid was added to these solutions, but when a solution remained after roughly doubling the original solid quantity (ca. 90 mg/mL), further addition was ceased. All the other samples remained as slurries. After slurrying for 4 hours, an aliquot was taken for XRPD analysis of the slurry solids from all the samples except the water and water saturated MeOAc samples as they remained solutions. The mixtures continued to stir at room temperature overnight then the remaining slurry solids were collected (total slurry time of about 24 hours).

[2] = Humidity stress tests (XRPD, HPLC purity); conditions: 40° C./75% RH/7 days
Protocol: Pattern A was heated to 277° C., monitored by DSC. […] This material was exposed to ˜90% RH at room temperature and slurried in ACN and after 4 hours the Patterns B and I were recovered, respectively.
About 15 mg of Compound A⋅2MSA (Pattern A) was loaded into a 4 mL vial and the opening was covered with a Kimwipe. This was placed in a 20 mL vial with saturated aqueous K2SO4 and sealed to provide an environment of 94-96% Relative Humidity (RH) at room temperature (RT).
About 10 mg of Compound A⋅2MSA Pattern A and Pattern B were loaded into separate 4 mL vials. These were placed in 20 mL vials with saturated aqueous NaCl and sealed to provide an environment of 75% RH at 40° C. […] The same 1 week study was done with Pattern C (+I) and Pattern I, both remained stable by XRPD.

[3] = Karl-Fischer titration for water determination
Protocol: Karl-Fischer titration for water determination was done using a Mettler Toledo C20S Coulometric KF Titrator equipped with a current generator cell with a diaphragm, and a doubleplatinum-pin electrode. Aquastar™ CombiCoulomat fritless reagent was used in both the anode and cathode compartments. Samples of approximately 0.03-0.10 g were dissolved in the anode compartment and titrated until the solution potential dropped below 100 mV. Hydranal 1 wt. % water standard is used for validation prior to sample analysis.

[4] = Equilibrium solubility in simulated fluids and water at 37° C.; conditions: for solubility at 24 h: above calibration range
Protocol: The solubility Compound A⋅2MSA, Patterns A, B and I, was measured in water, fasted state simulated gastric fluid (FaSSGF) and fasted state simulated intestinal fluid (FaSSIF) at 37° C. by slurrying in the respective media for 24 hours. 1.5 mL of the fluid was stirred at 37° C. About 5 mg of the specified solid was added to FaSSIF and a thin slurry was immediately formed. As a test, approximately 80 and 60 mg of Pattern A was added to 1.5 mL of water and FaSSGF, respectively without formation of a slurry. Therefore, about 10 mg of the desired Pattern was added to water and FaSSGF solutions. The samples were allowed to stir at 37° C. for 24 hrs. The stir bars were removed from the FaSSIF vials and the solids allowed to settle for 0.5 hours at 37° C. The supernatant/solutions were syringe filtered and recovered for analysis by HPLC as well as for pH measurement.

[5] = Storage at ambient conditions (XRPD); conditions: bulk, 6 days at ambient conditions; dimesylate
Protocol: Characterization after storage under ambient conditions: Pattern B was left at ambient conditions (21-22° C., 10-40% RH) for a week then characterized by)(RFD, TGA/DSC, and water content measured by Karl-Fischer titration. […] The water content was confirmed by KF titration which yielded a value of 4.20 wt. %.
Compound A⋅2MSA (Pattern A, 0.2622 g) was added to a 20 mL vial with a stir bar. Fifteen volumes (3.93 mL) of EtOH was added and the slurry was stirred overnight (˜20 hours). The slurry was sampled to confirm the correct pattern was generated, then the solids were collected by filtration. The resultant yellow solid was dried in a vacuum oven at 50° C. under dynamic vacuum for 2 hours, then under static vacuum overnight (˜16 hours) to yield 0.2015 g (77% yield). The in-situ sample drawn was dried for 3 hours then the solid was used for characterization by solution ^1H-NMR spectroscopy and simultaneous TGA/DSC. The bulk was dried overnight and used for stand-alone DSC, and thermal treatment.
(§1) Compound A⋅2MSA (Pattern A) was slurried in EtOH overnight at room temperature (ca. 16 hours). […] The bulk was dried in a vacuum oven at 50° C. under dynamic vacuum for 4.5 hours. The dried solids were removed from the oven and a “dry” XRPD analysis was collected.
Compound A⋅2MSA (Pattern A, 0.2659 g) was added to a 20 mL vial with a stir bar. Twenty-five volumes (6.65 mL) of ACN was added and the slurry was stirred overnight (˜20 hours). The slurry was sampled to confirm the correct pattern was generated, then the solids were collected by filtration. The resultant yellow solid was dried in a vacuum oven at 50° C. under dynamic vacuum for 2 hours, then under static vacuum overnight (˜16 hours) to yield 0.2255 g (85% yield). The sample drawn was dried for 3 hours then the solid was used for characterization by solution ^1H-NMR spectroscopy and simultaneous TGA/DSC. The bulk was dried overnight and used for stand-alone DSC.

[6] = Stability of XRPD pattern on drying; conditions: solids from short term slurries; vacuum oven at 50° C., minimum of 4 hours; dimesylate
Protocol: Short term slurries were carried out at two temperatures in 14 solvents. About 25 mg solid was added to a 2 mL vial followed by 0.70 mL of solvent. If all solids dissolved, more solid was added until a slurry was formed within reason. Slurries were stirred at constant temperature for four days (ambient temperature, 21-23° C.; or high temperature, 50° C.). After stirring for four days, solids were allowed to settle and were then recovered for XRPD analysis. XRPD analysis was performed on the wet cake, and if a new pattern was observed, the sample was dried in a vacuum oven at 50° C. for a minimum of 4 hours, then the dried sample was analyzed by XRPD.
Stability on Drying: A sample of Pattern B was prepared on an XRPD sample holder and analysed by XRPD to create a baseline. The disk was then left in a vacuum oven at 50° C. under static vacuum for 3 days. On the third day, the sample was removed from the oven and the “dry” pattern was recorded immediately.
as §1

[7] = Dynamic Vapor Sorption (DVS)
Protocol: Dynamic Vapor Sorption (DVS) was done using a DVS Intrinsic 1. The sample is loaded into a sample pan and suspended from a microbalance. A typical sample mass for DVS measurement is 25 mg. Nitrogen gas bubbled through distilled water provides the desired relative humidity.
A typical measurement comprises the steps: • 1—Equilibrate at 50% RH • 2-50% to 2%. (50%, 40%, 30%, 20%, 10% and 2%) • a. Hold minimum of 5 mins and maximum of 240 minutes at each humidity. The pass criteria is less than 0.002% change • 3-2% to 95% (2%, 10%, 20%, 30%, 40%, 50%, 60%, 70%, 80%, 90%, 95%) • a. Hold minimum of 5 mins and maximum of 240 minutes at each humidity. The pass criteria is less than 0.002% change • 4-95% to 2% (95%, 80%, 70%, 60%, 50%, 40%, 30%, 20%, 10%, 2%) • a. Hold minimum of 5 mins and maximum of 240 minutes at each humidity. The pass criteria is less than 0.002% change • 5-2% to 50% (2%, 10%, 20%, 30%, 40%, 50%) • a. Hold minimum of 5 mins and maximum of 240 minutes at each humidity. The pass criteria is less than 0.002% change Dynamic Vapor Sorption Isotherm Plots of Solid Forms of Compound A⋅2MSA

Question: With `CS(=O)(=O)O.CS(=O)(=O)O.N#Cc1cccc(-c2ccc3ncc(-c4cc(F)cc(F)c4)c(N4CCC(N)CC4)c3c2)c1O` [Amorphous Compound A⋅2MSA, 3-(4-(4-aminopiperidin-1-yl)-3-(3,5-difluorophenyl)quinolin-6-yl)-2-hydroxybenzonitrile dimesylate] as the compound, how does the “concentration at which a solution remained” value ([1]; water saturated MeOAc) read?
Answer: The value was greater than 90000 µg/mL.

Question: And the “concentration at which a solution remained” value ([1]; water)?
Answer: Its value is greater than 90000 µg/mL.

Question: With `CS(=O)(=O)O.CS(=O)(=O)O.N#Cc1cccc(-c2ccc3ncc(-c4cc(F)cc(F)c4)c(N4CCC(N)CC4)c3c2)c1O` [C + I, 3-(4-(4-aminopiperidin-1-yl)-3-(3,5-difluorophenyl)quinolin-6-yl)-2-hydroxybenzonitrile dimesylate] as the compound, how does the “Output XRPD” value [2] read?
Answer: Its value is “C + I”.

Question: What does the source list for `N#Cc1cccc(-c2ccc3ncc(-c4cc(F)cc(F)c4)c(N4CCC(N)CC4)c3c2)c1O` [Compound A, 3-(4-(4-aminopiperidin-1-yl)-3-(3,5-difluorophenyl)quinolin-6-yl)-2-hydroxybenzonitrile]?
Answer: Water Content [3]: 1.5% w/w; pH (24 hr) ([4]; FaSSGF (pH 1.70)): 1.82; comments ([4]; FaSSGF (pH 1.70), 24 hrs): dissolved; solubility at 24 h ([4]; FaSSGF, 37 °C, pH 1.7, fassgf or other biorelevant, thermodynamic from solid, FaSSGF (pH 1.70), 24 hrs, mg of Compound A (free base), read-out: Concentration): > 10300 µg/mL; pH (24 hr) ([4]; FaSSIF (pH 6.48)): 6.11; comments ([4]; FaSSIF (pH 6.48), 24 hrs): disproportionated; solubility thermodynamic at 24 h ([4]; FaSSIF, 37 °C, pH 6.48, fassif, thermodynamic from solid, FaSSIF (pH 6.48), 24 hrs, mg of Compound A (free base), read-out: Concentration): 9 µg/mL (≈ 0.0197 mM); pH (24 hr) ([4]; water): 2.71; solubility at 24 h ([4]; water, 37 °C, water, thermodynamic from solid, water, 24 hrs, mg of Compound A (free base), read-out: Concentration): > 9770 µg/mL; comments ([4]; water, 24 hrs): dissolved

Question: What does the source list for `CS(=O)(=O)O.CS(=O)(=O)O.N#Cc1cccc(-c2ccc3ncc(-c4cc(F)cc(F)c4)c(N4CCC(N)CC4)c3c2)c1O` [Pattern I, 3-(4-(4-aminopiperidin-1-yl)-3-(3,5-difluorophenyl)quinolin-6-yl)-2-hydroxybenzonitrile dimesylate]?
Answer: XRPD pattern after storage at ambient conditions [5]: a pattern with additional peaks; XRPD pattern upon drying [6]: stable upon drying; Water Content ([3]; dimesylate): 0.29% w/w; XRPD form after the DVS experiment ([7]; 2-95% RH, dimesylate): converted to Pattern B; reversible water uptake (DVS) ([7]; between 2% and 95% Relative Humidity (RH), dimesylate): 9.1 % w/w; water uptake (DVS) ([7]; between 15 and 75% RH): 2.5 % w/w; total mass difference on the desorption segment (DVS) ([7]; over the 2-95% RH range): 4.6%; total mass difference on the sorption segment (DVS) ([7]; over the 2-95% RH range): 9.1%; mass change (DVS) ([7]; range of 15-75% RH): 2.5 wt. %
